Reference: patent US20180312473A1, “PHENAZINE DERIVATIVES AS ANTIMICROBIAL AGENTS” (priority 2015, published 2018)
≈ marks a conversion by molar mass, not a printed value. Where two headings read alike, the source gives them in different places.

What was measured:
[1] = Spectrophotometric determination of dissociation constants (pKa); type: physicochemical; details: UV-vis at varying pH, 1:1 water:methanol buffers
Experimental: Dissociation constants (pKa) for select analogues were determined by implementing UV-vis spectroscopy at varying pH values. Buffers were prepared using potassium phosphate monobasic (KH2PO4) and sodium phosphate dibasic (Na2HPO4) in a 1:1 solution of water:methanol to achieve a pH range of 3.78 to 10.94. Compounds were added from 10 mM stock solutions in dimethyl sulfoxide (12.5 μL) to 987.5 μL of each buffer to yield a final compound concentration of 125 μM. Full spectral scans were performed for each evaluated analogue at pH 3.78 and pH 10.94 from 300 to 800 nm to determine λmax values for the protonated phenol (HA; e.g., HP 2 below) and the deprotonated phenolate species (A^−; e.g., conjugate base of HP 2 below). The change in absorption at each determined λmax in relation to pH was then monitored in each buffer and then plotted as absorbance versus pH for each species. The pKa was first estimated by determining the pH of the point of intersection of the two linear curves as shown. The visual estimation was confirmed by plotting pH versus log [A^−/HA]. The resulting plot yielded a linear regression line with a Y-intercept corresponding to a calculated pKa value.

[2] = system: Enterococcus faecium (ATCC 700221), VRE; assay: MIC assay (broth microdilution, CLSI); type: cell-based
in vitro = type: cell-based; details: human
HeLa cells = assay: in vitro; type: cell-based; details: human, 24 h
human red blood cells = assay: Hemolysis assay with red blood cells; details: human, 1 h, 200 μM, pH 7.2
In short: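 Washed human red blood cells exposed to compounds added from DMSO stocks, 1 h at 37° C.; supernatant OD read at 405 nm after centrifugation. % hemolysis calculated relative to DMSO (0%) and Triton X (100%) controls, from three independent experiments.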

[3] = system: MRSA-2 planktonic cells and biofilms; assay: Calgary Biofilm Device (CBD) assay, MBC/MBEC; type: cell-based, Staphylococcus aureus; details: Staphylococcus aureus, MRSA
[4] = system: MRSE (S. epidermidis ATCC 35984) planktonic cells and biofilms; assay: Calgary Biofilm Device (CBD) assay, MBC/MBEC; type: cell-based, Staphylococcus epidermidis; details: for MBC: Staphylococcus epidermidis
[5] = system: VRE (E. faecium ATCC 700221) planktonic cells and biofilms; assay: Calgary Biofilm Device (CBD) assay, MBC/MBEC; type: cell-based, Enterococcus faecium; details: c lowest concentration tested; for MBC: Enterococcus
A. baumannii 19606 = assay: MIC assay (broth microdilution, CLSI); type: cell-based, Acinetobacter baumannii; details: Acinetobacter baumannii, 19606; read-out: A. baumannii 19606 MIC
P. aeruginosa (PAO1) = assay: MIC assay (broth microdilution, CLSI); type: cell-based; details: Pseudomonas aeruginosa, PAO1; read-out: PAO1 MIC
K. pneumoniae 13883 = assay: MIC assay (broth microdilution, CLSI); type: cell-based, Klebsiella pneumoniae; details: Klebsiella pneumoniae, 13883; read-out: K. pneumoniae 13883 MIC
E. coli UAEC-1 = assay: MIC assay (broth microdilution, CLSI); type: cell-based; details: Escherichia coli, UAEC1; read-out: E. coli UAEC-1 MIC
E. faecium 700221 (VRE) = assay: MIC assay with Tiron or metal(II) cation co-treatment; type: cell-based, Enterococcus faecium; details: Enterococcus faecium, VRE
[6] = system: methicillin-resistant S. aureus (MRSA) strains; assay: MIC assay, values summarised over MRSA strains; type: cell-based, Staphylococcus aureus
MRSA BAA-44 = assay: MIC assay (broth microdilution, CLSI); details: Staphylococcus aureus, read-out: MIC, MRSA BAA-44
[7] = system: MRSA BAA-1707 planktonic cells and biofilms; assay: Calgary Biofilm Device (CBD) assay, MBC/MBEC; details: Staphylococcus aureus, read-out: MRSA BAA-1707 MBC
[8] = system: MRSA BAA-44 planktonic cells and biofilms; assay: Calgary Biofilm Device (CBD) assay, MBC/MBEC; details: Staphylococcus aureus, read-out: MRSA BAA-44 MBC
[9] = system: MRSA-2 (methicillin-resistant Staphylococcus aureus clinical isolate); assay: MIC assay (broth microdilution, CLSI); type: cell-based; details: Staphylococcus aureus, MRSA
[10] = system: MRSA-1 (methicillin-resistant Staphylococcus aureus clinical isolate); assay: MIC assay (broth microdilution, CLSI); type: cell-based; details: read-out: MIC, MRSA-1
[11] = system: Staphylococcus epidermidis (ATCC 12228); assay: MIC assay (broth microdilution, CLSI); type: cell-based; details: Staphylococcus epidermidis, ATCC12228
[12] = system: M. tuberculosis H37Ra (ATCC 25177); assay: Mycobacterium tuberculosis MIC assay; type: cell-based
Experimental: The culture was then diluted with fresh medium until an OD600 of 0.01 was reached. […] The final DMSO concentration was maintained at 0.5%. […] Three rows were reserved for each compound. […] OD600 absorbance was recorded using SPECTRAMAX M5 (Molecular Devices). Data obtained from three independent experiments were analyzed using Excel.
The culture was then diluted with fresh medium until an OD600 of 0.01 was reached. […] The final DMSO concentration was maintained at 0.5%. […] Three rows were reserved for each compound. […] OD600 absorbance was recorded using SPECTRAMAX M5 (Molecular Devices). Data obtained from three independent experiments were analyzed using EXCEL.

MRSA BAA-1707 = assay: MIC assay (broth microdilution, CLSI); details: Staphylococcus aureus, read-out: MIC, MRSA BAA-1707
[13] = system: Staphylococcus epidermidis (ATCC 35984), MRSE; assay: MIC assay (broth microdilution, CLSI); type: cell-based; details: Staphylococcus epidermidis, Table 7; read-out: MIC, MRSE 35984
[14] = system: S. aureus clinical isolate SA 129; assay: MIC assay (broth microdilution, CLSI); details: Staphylococcus aureus, read-out: MIC, SA 129
[15] = system: S. aureus clinical isolate SA 138; assay: MIC assay (broth microdilution, CLSI); details: Staphylococcus aureus, read-out: MIC, SA 138
MRSA-2 = assay: MIC assay with Tiron or metal(II) cation co-treatment; type: cell-based, Staphylococcus aureus; details: Staphylococcus aureus; MRSA-2, 200 μM iron(II); read-out: MIC with Fe^2+
[16] = system: MRSA-2 persister cells (stationary cultures); details: 100 μM; for MRSA-2 stationary killing: reduction of viable cells over 24 h
[17] = Enterococcus faecium, Table 2A, read-out: MIC, Enterococcus faecium (ATCC 700221)
[18] = Table 7, b lowest concentration tested, read-out: MIC, VRE 700221
[19] = Table 8, a/b 2-/4-fold range in independent experiments, read-out: MRSA-2 MBC
[20] = Table 8, read-out: MRSE 35984 MBC
[21] = Table 8, read-out: VRE 700221 MBC
[22] = Table 7, b lowest concentration tested, read-out: MIC, S. epidermidis 12228
[23] = Enterococcus faecium, Table 2B, b lowest concentration tested, read-out: MIC, Enterococcus faecium (ATCC 700221)

SMILES	MIC [2, 17] [µM]	MIC [2, 18] [µM]	IC50 at 24 h (in vitro) [µM]	IC50 (HeLa cells) [µM]	% Hemolysis (200 μM) (human red blood cells) [%]	% Hemolysis at 200 μM (human red blood cells) [%]	MBC [3, 19] [µM]	MBC [4, 20] [µM]	MBC [5, 21] [µM]	growth inhibition activity against at least one MRSA strain [6]	melting point [°C]	MIC (MRSA BAA-44) [µM]	MBC [7] [µM]	MBC [8] [µM]	MIC [11, 22] [µM]	MIC [2, 23] [µM]	MIC (MRSA BAA-1707) [µM]	other results
O=[N+]([O-])c1ccc(O)cc1 [4-nitrophenol, reference compound]																		pKa [1]: 7.62
Oc1c(Br)cc(I)c2nc3ccccc3nc12 [Compound 8, 2-Bromo-4-iodo-1-hydroxyphenazine]	6.25 (≈ 2.51 µg/mL)	6.25 (≈ 2.51 µg/mL)	> 100	> 100	2.9	2.9	31.3 (≈ 12.6 µg/mL)	11.7 (≈ 4.69 µg/mL)	3 (≈ 1.2 µg/mL)	sub-micromolar	186 to 188	1.17 (≈ 0.469 µg/mL)	23.5 (≈ 9.42 µg/mL)	46.9 (≈ 18.8 µg/mL)				MBC ([3]; Table 4, read-out: MBC, MRSA-2): 31.3 µM (≈ 12.6 µg/mL); MIC (A. baumannii 19606): 50 µM (≈ 20.1 µg/mL); MIC (P. aeruginosa (PAO1)): > 100 µM; MIC (K. pneumoniae 13883): > 100 µM; MIC (E. coli UAEC-1): > 100 µM; MIC (E. faecium 700221 (VRE); E. faecium 700221, 200 μM CuSO4, read-out: MIC with Cu^2+): 3.13 µM; MIC (E. faecium 700221 (VRE); E. faecium 700221, 1 mM Tiron, read-out: MIC with Tiron): 3.13 µM; MIC (E. faecium 700221 (VRE); E. faecium 700221, no additive, read-out: MIC): 3.13 µM
Oc1c(Br)cc(Br)c2nc3cc(Br)c(Br)cc3nc12 [Compound 17, 2,4,7,8-tetrabromo-1-hydroxyphenazine]	0.39 (≈ 0.2 µg/mL)	0.39 (≈ 0.2 µg/mL)	> 100	> 100	≤1				0.39 (≈ 0.2 µg/mL)			25 (≈ 12.8 µg/mL)	6.25 (≈ 3.2 µg/mL)	50 (≈ 25.6 µg/mL)	0.08 (≈ 0.0409 µg/mL)	0.39 (≈ 0.2 µg/mL)	12.5 (≈ 6.4 µg/mL)	MIC ([9]; read-out: MIC, MRSA-2): 6.25 µM (≈ 3.2 µg/mL); MIC ([9]; read-out: MIC, MRSA-2, Table 2B, a midpoint of 2-fold range, * partial growth inhibition at highest concentration): 6.25 µM (≈ 3.2 µg/mL); MIC ([9]; read-out: MIC, MRSA-2, Table 7, a midpoint of 2-fold range, b lowest concentration tested): 6.25 µM (≈ 3.2 µg/mL); MIC ([10]; Staphylococcus aureus, MRSA): 12.5 µM (≈ 6.4 µg/mL); MIC ([10]; Table 2B, b lowest concentration tested): 12.5 µM (≈ 6.4 µg/mL); MIC ([11]; Table 2A, read-out: MIC, Staphylococcus epidermidis (ATCC 12228)): 0.05 to 0.1 µM (≈ 0.0256 to 0.0512 µg/mL); MIC ([12]; Mycobacterium tuberculosis, 168 h, M. tuberculosis H37Ra, 7 days, read-out: Mtb MIC): > 50 µM; MIC ([12]; Mycobacterium tuberculosis, Table 7, read-out: MIC, M. tuberculosis H37Ra): > 50 µM; MIC ([12]; Table 7, read-out: MIC, M. tuberculosis H37Ra): >50 µM; MBC ([4]; read-out: MBC, Staphylococcus epidermidis (ATCC 35984)): 1.56 µM (≈ 0.798 µg/mL); MBC ([4]; read-out: MRSE 35984 MBC): 1.56 µM (≈ 0.798 µg/mL); MBC ([4]; read-out: MRSE MBC): 1.56 µM (≈ 0.798 µg/mL); MBEC, Staphylococcus epidermidis (ATCC 35984) ([4]; Table 4): 6.25 µM; MRSE MBEC ([4]; Table 5): 6.25 µM; MBC ([5]; Table 5, read-out: VRE MBC): 0.39 µM (≈ 0.2 µg/mL); VRE MBEC ([5]; Table 5): 0.39/0.39 μM
Oc1c(Br)cc(Br)c2nc3ccc(Br)cc3nc12 [Compound 18, 2,4,8-Tribromo-1-hydroxyphenazine]						2.1	50 (≈ 21.6 µg/mL)			sub-micromolar	239 to 241		12.5 (≈ 5.41 µg/mL)		3.13 (≈ 1.35 µg/mL)		0.2 (≈ 0.0866 µg/mL)	MIC [13]: 3.13 µM (≈ 1.35 µg/mL); MIC ([6]; Staphylococcus aureus, MRSA, range over the MRSA strains/isolates tested, read-out: MIC against MRSA strains): 0.15 to 0.78 µM (≈ 0.0649 to 0.338 µg/mL)
CCCCc1cc(Br)c(O)c2nc3ccccc3nc12 [Compound 22, 2-Bromo-4-butyl-1-hydroxyphenazine]		0.78 (≈ 0.258 µg/mL)					46.9 (≈ 15.5 µg/mL)	11.7 (≈ 3.88 µg/mL)	2 (≈ 0.662 µg/mL)		135 to 137		46.9 (≈ 15.5 µg/mL)					MIC [14]: 1.17 µM (≈ 0.388 µg/mL); MIC [15]: 3.13 µM (≈ 1.04 µg/mL)
CC(=O)NC[C@H]1CN(c2ccc(N3CCOCC3)c(F)c2)C(=O)O1 [Linezolid, linezolid, reference compound]		3.13 (≈ 1.06 µg/mL)			≤1				469 (≈ 158 µg/mL)				31.3 (≈ 10.6 µg/mL)			3.13 (≈ 1.06 µg/mL)		MIC ([9]; Table 7, a midpoint of 2-fold range, b lowest concentration tested, read-out: MIC, MRSA-2): 3.13 µM (≈ 1.06 µg/mL); MIC (MRSA-2): 6.25 µM; log reduction of MRSA-2 persisters after 3 hours ([16]; 3 hours): 2 log; MRSA-2 stationary killing [16]: ~1 log; MRSA-2 stationary killing ([16]; listed as linezolid): 1 log
